Counter-ions that a name gives are not always drawn.
Assay: Humidifying Nilotinib.3HCl: water content measured at regular intervals in a closed glass container with saturated potassium chloride solution
Type: physicochemical
Conditions: for water content (M/C) After 72 Hrs: after 72 Hrs in closed container over saturated potassium chloride solution; for water content (M/C) After 72 Hrs / water content (M/C) After 96 Hrs / M/C Initial (water content): tri hydrochloride; for water content (M/C) After 96 Hrs: after 96 Hrs in closed container over saturated potassium chloride solution; for M/C Initial (water content): before humidifying
Protocol: Weight 4.0 gms (having HPLC purity is 90%) Crude Nilotinib Tri hydrochloride in dry Petri dish and placed in to closed glass container containing (saturated Potassium chloride solution) at 20 to 25 temperature, the water content of crude Nilotinib was measured by regular interval.
Weight 4.0 gms (having HPLC purity is 97.91%) Pure Nilotinib Tri hydrochloride in dry Petri dish and placed in to closed glass container containing (saturated Potassium chloride solution) at 20 to 25 temperature, the water content of Pure Nilotinib was measured by regular interval.

water content (M/C) After 24 Hrs (after 24 Hrs in closed container over saturated potassium chloride solution, 20 to 25 temperature) [%]	water content (M/C) After 48 Hrs (after 48 Hrs in closed container over saturated potassium chloride solution, 20 to 25 temperature) [%]	water content (M/C) After 72 Hrs (20 to 25 temperature) [%]	water content (M/C) After 96 Hrs (20 to 25 temperature) [%]	water content (M/C) After 120 Hrs (after 120 Hrs in closed container over saturated potassium chloride solution, 20 to 25 temperature) [%]	M/C Initial (water content) [%]	Structure (SMILES)
16.33	16.89	16.40	16.36	16.53	4.31	Cc1cn(-c2cc(NC(=O)c3ccc(C)c(Nc4nccc(-c5cccnc5)n4)c3)cc(C(F)(F)F)c2)cn1 [Nilotinib.3HCl (crude), 3-(4-(pyridin-3-yl)pyrimidin-2-ylamino)-N-(3-(trifluoromethyl)-5-(4-methyl-1H-imidazol-1-yl)phenyl)-4-methylbenzamide tri hydrochloride]
		14.90	14.41		4.55	Cc1cn(-c2cc(NC(=O)c3ccc(C)c(Nc4nccc(-c5cccnc5)n4)c3)cc(C(F)(F)F)c2)cn1 [Nilotinib.3HCl (Pure), 3-(4-(pyridin-3-yl)pyrimidin-2-ylamino)-N-(3-(trifluoromethyl)-5-(4-methyl-1H-imidazol-1-yl)phenyl)-4-methylbenzamide tri hydrochloride]
